Reference: paper PMC4965148 (PLoS ONE, 2016)
“And” between values parts separate entries of the source, which are not always exact repeats. Identical values can stand only once. Like-named read-outs stand apart in the source and are kept apart here.

What was measured:
[1] = Plasma and brain concentrations after dosing; assay type: in vivo, rat; conditions: rat; for Kp at 30 min: brain/plasma; for Kp at 30 min / concentration at 30 min: sc; for concentration at 150 min / concentration at 30 min: plasma
Method: At specified time points after dosing, the forebrain (for occupancy), the remaining hindbrain (for brain drug exposure) and plasma were collected, frozen in chilled isopentane and stored at -80°C until assayed.
In brief, 50 μL of the plasma sample was extracted by protein precipitation with 150 μL acetonitrile containing an internal standard and 5 μL of supernatant injected into the LC-MS/MS system. Analytes were separated by reversed phase chromatography and detection of each analyte was achieved through selected reaction monitoring mode of mass spectrometry.

[2] = target: Acetylcholinesterase (Electrophorus electricus, UniProt O42275); test: Selectivity panel, enzyme; assay type: biochemical; conditions: Eel
Chain of Acetylcholinesterase (O42275 24-633): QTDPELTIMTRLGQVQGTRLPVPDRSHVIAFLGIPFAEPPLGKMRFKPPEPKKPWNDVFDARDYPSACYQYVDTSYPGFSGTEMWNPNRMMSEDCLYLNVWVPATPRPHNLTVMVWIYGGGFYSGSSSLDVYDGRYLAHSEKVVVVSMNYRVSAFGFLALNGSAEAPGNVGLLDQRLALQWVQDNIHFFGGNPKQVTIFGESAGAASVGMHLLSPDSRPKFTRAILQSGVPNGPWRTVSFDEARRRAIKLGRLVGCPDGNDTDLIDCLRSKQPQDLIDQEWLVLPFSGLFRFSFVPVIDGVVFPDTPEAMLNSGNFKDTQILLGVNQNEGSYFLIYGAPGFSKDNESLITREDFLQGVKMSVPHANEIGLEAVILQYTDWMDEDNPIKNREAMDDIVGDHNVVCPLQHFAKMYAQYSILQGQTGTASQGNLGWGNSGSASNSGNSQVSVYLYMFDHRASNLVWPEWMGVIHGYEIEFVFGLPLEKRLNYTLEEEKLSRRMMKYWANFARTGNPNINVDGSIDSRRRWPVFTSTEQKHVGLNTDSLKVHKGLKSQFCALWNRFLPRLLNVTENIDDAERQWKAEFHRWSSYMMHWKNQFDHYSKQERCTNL

[3] = target: Adrenergic α1B (Homo sapiens, UniProt P35368); test: Selectivity panel, binding
Chain of Adrenergic α1B (P35368 whole entry): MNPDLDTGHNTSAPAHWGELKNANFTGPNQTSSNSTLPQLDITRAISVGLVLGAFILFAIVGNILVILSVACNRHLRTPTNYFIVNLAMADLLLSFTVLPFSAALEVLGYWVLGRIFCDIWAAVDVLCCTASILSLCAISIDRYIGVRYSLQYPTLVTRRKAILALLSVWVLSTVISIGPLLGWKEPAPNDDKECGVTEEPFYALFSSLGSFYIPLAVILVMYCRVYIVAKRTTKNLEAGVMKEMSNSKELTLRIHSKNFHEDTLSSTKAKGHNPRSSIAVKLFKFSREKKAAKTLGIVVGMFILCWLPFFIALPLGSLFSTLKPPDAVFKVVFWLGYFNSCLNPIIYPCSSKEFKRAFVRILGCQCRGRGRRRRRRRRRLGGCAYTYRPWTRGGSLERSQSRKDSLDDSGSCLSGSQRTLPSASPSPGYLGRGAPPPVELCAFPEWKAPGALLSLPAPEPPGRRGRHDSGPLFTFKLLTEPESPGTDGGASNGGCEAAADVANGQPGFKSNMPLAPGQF

[4] = target: CB1 (Homo sapiens, UniProt P21554); test: Selectivity panel, binding; conditions: read-out: % inhibition @ 10 µM
Chain of CB1 (P21554 whole entry): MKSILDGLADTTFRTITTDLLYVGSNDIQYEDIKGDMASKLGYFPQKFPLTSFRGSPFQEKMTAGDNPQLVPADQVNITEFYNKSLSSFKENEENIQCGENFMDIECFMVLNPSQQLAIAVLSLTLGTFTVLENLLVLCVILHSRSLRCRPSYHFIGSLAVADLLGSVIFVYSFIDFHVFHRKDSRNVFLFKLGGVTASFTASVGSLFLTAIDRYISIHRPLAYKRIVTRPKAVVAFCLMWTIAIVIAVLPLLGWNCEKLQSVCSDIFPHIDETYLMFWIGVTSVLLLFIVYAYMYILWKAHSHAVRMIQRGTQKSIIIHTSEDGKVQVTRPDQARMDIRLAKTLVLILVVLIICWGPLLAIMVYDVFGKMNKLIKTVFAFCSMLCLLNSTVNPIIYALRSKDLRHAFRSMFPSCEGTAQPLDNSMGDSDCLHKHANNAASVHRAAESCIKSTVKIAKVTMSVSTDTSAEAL

[5] = target: Dopamine D2 (Homo sapiens, UniProt P14416); test: Selectivity panel, binding
Chain of Dopamine D2 (P14416 whole entry): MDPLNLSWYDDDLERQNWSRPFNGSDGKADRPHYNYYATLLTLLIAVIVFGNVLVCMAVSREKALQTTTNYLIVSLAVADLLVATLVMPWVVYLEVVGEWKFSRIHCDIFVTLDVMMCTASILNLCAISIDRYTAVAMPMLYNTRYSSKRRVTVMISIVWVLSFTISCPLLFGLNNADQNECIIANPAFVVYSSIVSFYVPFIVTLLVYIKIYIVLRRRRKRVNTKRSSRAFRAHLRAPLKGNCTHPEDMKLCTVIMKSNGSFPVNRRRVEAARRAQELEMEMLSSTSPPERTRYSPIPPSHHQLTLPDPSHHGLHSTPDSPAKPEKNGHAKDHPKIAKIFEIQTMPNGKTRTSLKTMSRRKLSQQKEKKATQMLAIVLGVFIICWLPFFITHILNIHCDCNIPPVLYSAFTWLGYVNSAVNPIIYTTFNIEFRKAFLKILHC

[6] = target: MAO-B (Homo sapiens, UniProt P27338); test: Selectivity panel, enzyme; assay type: biochemical
Chain of MAO-B (P27338 whole entry): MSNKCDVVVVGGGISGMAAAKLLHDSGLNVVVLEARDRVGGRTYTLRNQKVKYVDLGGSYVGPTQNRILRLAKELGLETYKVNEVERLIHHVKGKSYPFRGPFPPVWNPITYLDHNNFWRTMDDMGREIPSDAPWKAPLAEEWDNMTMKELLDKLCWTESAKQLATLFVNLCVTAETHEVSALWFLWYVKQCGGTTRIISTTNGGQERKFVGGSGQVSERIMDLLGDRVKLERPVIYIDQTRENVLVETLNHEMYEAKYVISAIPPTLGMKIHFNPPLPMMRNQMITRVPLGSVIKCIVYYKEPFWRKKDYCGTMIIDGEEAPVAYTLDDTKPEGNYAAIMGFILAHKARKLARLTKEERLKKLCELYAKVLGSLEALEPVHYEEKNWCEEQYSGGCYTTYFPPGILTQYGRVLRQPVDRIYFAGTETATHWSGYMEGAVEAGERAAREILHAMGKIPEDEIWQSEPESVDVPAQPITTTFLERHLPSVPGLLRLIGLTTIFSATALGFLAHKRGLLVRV

[7] = target: Norepinephrine transporter (Homo sapiens, UniProt P23975); test: Selectivity panel, binding
Chain of Norepinephrine transporter (P23975 whole entry): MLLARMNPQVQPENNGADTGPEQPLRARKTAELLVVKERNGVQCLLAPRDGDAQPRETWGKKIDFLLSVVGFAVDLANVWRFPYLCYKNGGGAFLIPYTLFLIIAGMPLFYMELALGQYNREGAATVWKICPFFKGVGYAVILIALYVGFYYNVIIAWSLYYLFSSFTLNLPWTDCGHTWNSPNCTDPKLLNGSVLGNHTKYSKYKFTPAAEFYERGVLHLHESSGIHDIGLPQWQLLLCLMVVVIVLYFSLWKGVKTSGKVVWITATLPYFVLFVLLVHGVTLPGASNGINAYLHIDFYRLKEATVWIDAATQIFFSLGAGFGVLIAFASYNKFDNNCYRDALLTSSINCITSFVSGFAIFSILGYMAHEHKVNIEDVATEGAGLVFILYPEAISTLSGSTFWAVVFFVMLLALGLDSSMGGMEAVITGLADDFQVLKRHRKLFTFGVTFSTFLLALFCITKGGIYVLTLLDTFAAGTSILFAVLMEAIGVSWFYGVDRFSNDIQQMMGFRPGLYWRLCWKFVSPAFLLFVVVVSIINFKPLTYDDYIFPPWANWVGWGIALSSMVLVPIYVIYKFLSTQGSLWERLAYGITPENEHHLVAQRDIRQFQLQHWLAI

[8] = target: PDE3; test: Selectivity panel, enzyme; assay type: biochemical; conditions: Human
[9] = target: 5-HT2A (Homo sapiens, UniProt P28223); test: Selectivity panel, functional; assay type: cell-based
Chain of 5-HT2A (P28223 whole entry): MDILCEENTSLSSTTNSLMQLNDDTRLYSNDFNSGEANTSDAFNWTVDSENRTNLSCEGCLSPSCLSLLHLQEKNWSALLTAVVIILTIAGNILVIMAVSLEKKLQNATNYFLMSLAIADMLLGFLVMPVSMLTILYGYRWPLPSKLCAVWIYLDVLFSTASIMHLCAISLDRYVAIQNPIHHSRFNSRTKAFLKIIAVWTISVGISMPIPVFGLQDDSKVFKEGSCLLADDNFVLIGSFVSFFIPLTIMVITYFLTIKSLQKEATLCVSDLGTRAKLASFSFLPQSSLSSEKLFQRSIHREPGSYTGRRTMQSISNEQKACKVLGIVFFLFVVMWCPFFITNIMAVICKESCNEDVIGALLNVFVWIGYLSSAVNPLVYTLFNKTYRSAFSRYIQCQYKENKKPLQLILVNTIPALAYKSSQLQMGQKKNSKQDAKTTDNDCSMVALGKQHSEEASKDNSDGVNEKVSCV

[10] = target: T1, human 5-HT3A receptors (Homo sapiens, UniProt P46098); test: biochemical
T1 sequence (P46098 24-478): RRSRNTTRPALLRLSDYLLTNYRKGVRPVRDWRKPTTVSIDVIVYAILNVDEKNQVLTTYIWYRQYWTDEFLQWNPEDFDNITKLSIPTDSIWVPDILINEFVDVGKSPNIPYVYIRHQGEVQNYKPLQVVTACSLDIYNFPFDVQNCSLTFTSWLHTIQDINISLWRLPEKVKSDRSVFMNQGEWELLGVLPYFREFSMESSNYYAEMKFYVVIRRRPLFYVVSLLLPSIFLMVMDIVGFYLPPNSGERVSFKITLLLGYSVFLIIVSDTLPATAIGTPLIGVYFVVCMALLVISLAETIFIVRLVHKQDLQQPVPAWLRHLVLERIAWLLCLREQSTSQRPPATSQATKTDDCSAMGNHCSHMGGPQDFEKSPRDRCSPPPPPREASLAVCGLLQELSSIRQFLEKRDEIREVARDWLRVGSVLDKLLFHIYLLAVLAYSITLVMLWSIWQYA

## c1cn(-c2cc(NC3=NC[C@@]4(CN5CCC4CC5)O3)ncn2)cn1 [BMS-933043, (2R)-N-(6-(1H-imidazol-1-yl)-4-pyrimidinyl)-4'H-spiro[4-azabicyclo[2.2.2]octane-2,5'-[1,3]oxazol]-2'-amine]
[1]; 0.3 mg/kg, Rat N40 Gating, 0.30 mg/kg sc, 30 min
  Kp at 30 min: 0.26
[1]; 0.56 mg/kg, Rat N40 Gating, 0.56 mg/kg sc, 30 min
  Kp at 30 min: 0.3
[1]; 1 mg/kg, Rat MMN, 1 mg/kg sc, 30 min
  Kp at 30 min: 0.19
[1]; 1 mg/kg, Rat N40 Gating, 1 mg/kg sc, 30 min
  Kp at 30 min: 0.33
[1]; 3 mg/kg, Rat MMN, 3 mg/kg sc, 30 min
  Kp at 30 min: 0.19
[1]; 3 mg/kg, Rat N40 Gating, 3 mg/kg sc, 30 min
  Kp at 30 min: 0.27
[1]; oral, 0.3 mg/kg, Rat MK-801 Set Shift (0.3-3 mg/kg study), 0.30 mg/kg po, read-out: Plasma Mean ± SD
  concentration at 150 min: 5.7 ± 0.9 nM
[1]; oral, 1 mg/kg, Rat MK-801 Set Shift (0.3-3 mg/kg study), 1 mg/kg po, read-out: Plasma Mean ± SD
  concentration at 150 min: 50 ± 7.4 nM
[1]; oral, 3 mg/kg, Rat MK-801 Set Shift (0.3-3 mg/kg study), 3 mg/kg po, read-out: Plasma Mean ± SD
  concentration at 150 min: 410 ± 97 nM
[1]; oral, 3 mg/kg, Rat MK-801 Set Shift (3-30 mg/kg study), 3 mg/kg po, read-out: Plasma Mean ± SD
  concentration at 150 min: 452 ± 60 nM
[1]; oral, 10 mg/kg, Rat MK-801 Set Shift (3-30 mg/kg study), 10 mg/kg po, read-out: Plasma Mean ± SD
  concentration at 150 min: 1860 nM
[1]; oral, 30 mg/kg, Rat MK-801 Set Shift (3-30 mg/kg study), 30 mg/kg po, read-out: Plasma Mean ± SD
  concentration at 150 min: 7260 nM
[1]; po, 1 mg/kg, Rat Neonatal PCP ID/ED, 1 mg/kg po, read-out: Plasma Mean ± SD
  concentration at 150 min: 21 ± 9 nM
[1]; po, 3 mg/kg, Rat Neonatal PCP ID/ED, 3 mg/kg po, read-out: Plasma Mean ± SD
  concentration at 150 min: 225 ± 50 nM
[1]; 0.01 mg/kg, Rat MMN, 0.01 mg/kg sc, 30 min, read-out: Plasma Mean ± SD
  concentration at 30 min: 2.4 ± 0.1 nM
[1]; 0.03 mg/kg, Rat MMN, 0.03 mg/kg sc, 30 min, read-out: Plasma Mean ± SD
  concentration at 30 min: 23 ± 29 nM
[1]; 0.1 mg/kg, Rat MMN, 0.10 mg/kg sc, 30 min, read-out: Plasma Mean ± SD
  concentration at 30 min: 24 ± 0.6 nM
[1]; 0.3 mg/kg, Rat MMN, 0.30 mg/kg sc, 30 min, read-out: Plasma Mean ± SD
  concentration at 30 min: 75 ± 6 nM
[1]; 0.3 mg/kg, Rat N40 Gating, 0.30 mg/kg sc, 30 min, read-out: Plasma Mean ± SD
  concentration at 30 min: 81 ± 8 nM
[1]; 0.56 mg/kg, Rat N40 Gating, 0.56 mg/kg sc, 30 min, read-out: Plasma Mean ± SD
  concentration at 30 min: 146 ± 12 nM
[1]; 1 mg/kg, Rat MMN, 1 mg/kg sc, 30 min, read-out: Plasma Mean ± SD
  concentration at 30 min: 398 ± 139 nM
[1]; 1 mg/kg, Rat N40 Gating, 1 mg/kg sc, 30 min, read-out: Plasma Mean ± SD
  concentration at 30 min: 295 ± 27 nM
[1]; 3 mg/kg, Rat MMN, 3 mg/kg sc, 30 min, read-out: Plasma Mean ± SD
  concentration at 30 min: 1970 nM
[1]; 3 mg/kg, Rat N40 Gating, 3 mg/kg sc, 30 min, read-out: Plasma Mean ± SD
  concentration at 30 min: 1360 nM
[1]; subcutaneous, 10 mg/kg, N40 gating, read-out: average plasma concentration at dose with loss of efficacy
  concentration at 30 min: 3310 nM
[2]
  IC50: > 60 µM
[3]
  IC50: > 30 µM
[4]
  inhibition at 10 µM: -5%
[5]
  IC50: > 30 µM
[6]
  IC50: > 30 µM
[7]
  IC50: > 30 µM
[8]
  IC50: > 30 µM
[9]
  EC50: > 10 µM
[10]; HEK293/human 5-HT3A Ki (individual), individual determinations
  Ki: 2.31 µM and 2.59 µM
[10]; human 5-HT3A mean Ki ± SD
  Ki: 2.45 µM
